Values belong to the compound of their own block, whether it stands above or below them. Activity calls are given as the source filed them.
Columns and labels:
Albumin = Albumin (Bos taurus, UniProt P02769); assay: Counterscreen for inhibitors of T-cell receptor (TCR)-CD3 interaction: Fluorescence-based biochemical high throughput dose response assay to identify inhibitors of T-cell receptor (TCR)-CD3 interaction using a TAMRA-labeled BSA probe.; assay type: functional
A549 = assay: viability loss in A549 cells – cell-based, plate reader, cherry-pick samples, cytotoxicity control, dose response (AID 687028); assay type: functional; conditions: Homo sapiens
Large T antigen = Large T antigen (Simian virus 40, UniProt P03070); assay type: functional, Betapolyomavirus macacae;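 note: Confirmatory-stage PubChem screen for compounds that inhibit SV40 T antigen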
[1] = target: FAD-linked sulfhydryl oxidase ALR (Homo sapiens, UniProt P55789); assay: ALR-catalysed DTT oxidation blockers – biochemical, H2O2 detection, luminescence, cherry-pick, dose response (AID 493248)
[2] = target: T1, Rac GTPase-activating protein 1 (Homo sapiens, UniProt Q9H0H5); assay: blockers of MgcRacGAP-driven Rac1 GTP hydrolysis – biochemical, ADP Hunter fluorescence, primary and confirmatory, confirmation (AID 624330); assay type: functional
T1 sequence (Q9H0H5 whole entry): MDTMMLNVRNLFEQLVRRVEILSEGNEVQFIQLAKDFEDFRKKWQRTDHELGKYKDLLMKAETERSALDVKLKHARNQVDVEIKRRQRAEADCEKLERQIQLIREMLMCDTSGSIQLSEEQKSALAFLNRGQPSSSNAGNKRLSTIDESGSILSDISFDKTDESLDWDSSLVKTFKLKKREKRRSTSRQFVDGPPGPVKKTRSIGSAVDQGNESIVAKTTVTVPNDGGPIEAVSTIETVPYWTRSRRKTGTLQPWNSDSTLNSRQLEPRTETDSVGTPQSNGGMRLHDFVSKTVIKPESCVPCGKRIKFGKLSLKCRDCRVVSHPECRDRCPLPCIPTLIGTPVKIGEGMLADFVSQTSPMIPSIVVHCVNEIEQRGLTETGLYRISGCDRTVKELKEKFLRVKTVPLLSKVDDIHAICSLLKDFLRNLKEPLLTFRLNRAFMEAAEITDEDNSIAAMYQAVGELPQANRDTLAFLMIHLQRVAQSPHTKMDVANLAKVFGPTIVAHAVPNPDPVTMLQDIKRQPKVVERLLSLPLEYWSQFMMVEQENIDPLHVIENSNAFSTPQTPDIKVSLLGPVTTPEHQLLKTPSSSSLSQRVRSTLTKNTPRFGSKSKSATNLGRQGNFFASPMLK

Paired box protein Pax-8 = Paired box protein Pax-8 (Homo sapiens, UniProt Q06710); assay: PAX8 transcriptional activity inhibition in RMG-I – RMG-I cells, luciferase, cherry-pick, dose response (AID 687027); assay type: functional, cell-based;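 note: luciferase reporter driven by Pax8 target thyroperoxidase promoter measured by SteadyGlo luminescence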
[3] = IGROV1 cell killing – plate reader, dry powder samples, PAX8 inhibitor project, dose response (AID 743043); assay type: functional, cell-based; conditions: IGROV-1
[4] = cytotoxicity in HEK293 background cells – cell-based, dry powder, set 2, counter-screen for EBV LMP1 inhibitor project, dose response (AID 624374); assay type: functional
[5] = general mammalian cell viability loss – inhibitor set, cherry-pick, set 2, cytotoxicity control for miR-122 modulator project, dose response (AID 720697); assay type: functional, cell-based
[6] = general mammalian cell viability loss – activator set, cherry-pick, cytotoxicity control for miR-122 modulator project, dose response (AID 720690); assay type: functional, cell-based;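 note: HEK293T human cells scored for general mammalian cytotoxicity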

Albumin, sequence (P02769 whole entry): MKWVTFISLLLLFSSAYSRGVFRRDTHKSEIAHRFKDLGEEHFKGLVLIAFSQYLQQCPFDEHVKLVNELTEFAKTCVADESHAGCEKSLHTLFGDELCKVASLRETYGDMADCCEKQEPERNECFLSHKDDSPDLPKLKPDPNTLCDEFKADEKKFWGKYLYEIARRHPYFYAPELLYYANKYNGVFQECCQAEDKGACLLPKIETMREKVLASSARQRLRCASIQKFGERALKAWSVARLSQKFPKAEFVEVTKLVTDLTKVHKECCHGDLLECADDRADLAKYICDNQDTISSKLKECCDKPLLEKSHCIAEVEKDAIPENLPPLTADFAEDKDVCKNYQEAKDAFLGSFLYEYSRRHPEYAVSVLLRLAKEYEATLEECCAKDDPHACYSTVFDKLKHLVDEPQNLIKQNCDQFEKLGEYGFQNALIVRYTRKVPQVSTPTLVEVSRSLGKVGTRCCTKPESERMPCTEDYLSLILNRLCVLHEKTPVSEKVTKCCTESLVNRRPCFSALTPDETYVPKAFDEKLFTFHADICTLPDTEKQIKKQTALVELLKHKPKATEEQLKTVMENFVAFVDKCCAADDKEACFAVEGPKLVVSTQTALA
Paired box protein Pax-8, sequence (Q06710 whole entry): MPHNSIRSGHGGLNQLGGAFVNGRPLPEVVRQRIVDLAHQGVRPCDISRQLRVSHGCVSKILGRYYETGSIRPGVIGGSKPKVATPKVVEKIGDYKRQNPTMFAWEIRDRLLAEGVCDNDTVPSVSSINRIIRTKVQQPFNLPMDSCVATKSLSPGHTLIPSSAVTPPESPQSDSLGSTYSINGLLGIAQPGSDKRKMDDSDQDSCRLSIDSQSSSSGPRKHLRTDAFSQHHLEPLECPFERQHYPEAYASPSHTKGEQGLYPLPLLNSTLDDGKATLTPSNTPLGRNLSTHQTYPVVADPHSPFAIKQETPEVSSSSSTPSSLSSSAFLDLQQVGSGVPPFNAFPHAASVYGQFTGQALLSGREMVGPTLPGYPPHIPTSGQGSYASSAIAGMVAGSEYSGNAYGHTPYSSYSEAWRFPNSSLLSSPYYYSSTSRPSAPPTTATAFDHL
Large T antigen, sequence (P03070 whole entry): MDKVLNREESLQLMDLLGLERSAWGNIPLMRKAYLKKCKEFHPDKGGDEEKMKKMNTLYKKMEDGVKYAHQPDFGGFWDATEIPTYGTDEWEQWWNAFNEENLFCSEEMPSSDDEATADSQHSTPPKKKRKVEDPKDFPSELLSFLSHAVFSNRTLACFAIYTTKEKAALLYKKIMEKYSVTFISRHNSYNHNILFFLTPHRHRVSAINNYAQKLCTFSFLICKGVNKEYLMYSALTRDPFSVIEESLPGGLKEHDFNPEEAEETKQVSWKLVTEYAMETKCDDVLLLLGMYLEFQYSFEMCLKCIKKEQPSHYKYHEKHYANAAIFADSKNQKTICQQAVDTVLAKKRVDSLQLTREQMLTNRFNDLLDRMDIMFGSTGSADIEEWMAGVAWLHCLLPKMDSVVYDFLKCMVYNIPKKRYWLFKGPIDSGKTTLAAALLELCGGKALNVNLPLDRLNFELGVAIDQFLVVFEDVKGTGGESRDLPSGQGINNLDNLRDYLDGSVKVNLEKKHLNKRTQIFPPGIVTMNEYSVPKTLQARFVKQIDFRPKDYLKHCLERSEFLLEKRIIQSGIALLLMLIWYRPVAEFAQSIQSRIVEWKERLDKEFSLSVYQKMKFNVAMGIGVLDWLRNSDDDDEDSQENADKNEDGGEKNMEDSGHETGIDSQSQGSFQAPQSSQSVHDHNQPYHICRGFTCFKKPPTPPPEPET
FAD-linked sulfhydryl oxidase ALR, sequence (P55789 whole entry): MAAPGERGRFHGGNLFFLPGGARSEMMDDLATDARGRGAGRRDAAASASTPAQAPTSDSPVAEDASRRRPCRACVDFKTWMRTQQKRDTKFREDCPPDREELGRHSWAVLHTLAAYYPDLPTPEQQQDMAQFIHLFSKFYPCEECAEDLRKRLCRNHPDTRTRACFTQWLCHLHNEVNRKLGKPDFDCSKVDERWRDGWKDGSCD

- IC50 (Albumin): > 94.1 µM (inactive)
Structure (SMILES): Nc1ccc([N+](=O)[O-])cc1C(=O)NNC(=O)c1ccco1

Structure (SMILES): O=C(NCc1ccc2c(c1)OCO2)C(=O)NCC1OCCCN1S(=O)(=O)c1ccccc1 (configuration not stated)
- AC50 (A549): 27.9 µM (active)

- IC50 (Large T antigen): 3.87 µM (active)
- AC50 [1]: 2.19 µM (active)
- IC50 [2]: 23 µM (active)
- IC50 (Albumin): > 94.1 µM (inactive)
Structure (SMILES): Oc1ccc(/C=N/Nc2ncnc3c2ncn3Cc2ccccc2)cc1O

Structure (SMILES): CC(C)(C)NC(=O)C(c1cccc2ccccc12)n1c(=O)c(-c2ccccc2)nc2ccccc21 (configuration not stated)
- AC50 (A549): 8.91 µM (active)

Structure (SMILES): C[C@@H]1CN([C@@H](C)CO)C(=O)Cc2cc(NS(=O)(=O)c3ccc(Cl)cc3)ccc2O[C@H]1CN(C)Cc1ccc(Cl)c(Cl)c1
- AC50 (Paired box protein Pax-8): 4.26 µM (active)
- AC50 [3]: 38.5 µM (active)

Structure (SMILES): O=C(Cc1ccccn1)NCC[C@@H]1CC[C@@H](NC(=O)Nc2ccc(Cl)cc2)[C@H](CO)O1
- AbsAC35 [4]: 175.41 µM

Structure (SMILES): C[C@H](CO)N1C[C@H](C)[C@H](CN(C)Cc2ccccc2)Oc2cc(/C=C/c3ccccc3)ccc2S1(=O)=O
- AC50 [5]: 34.5 µM (active)
- AC50 [6]: 22.7 µM (active)

Reference: ChEMBL document CHEMBL1201862, “PubChem BioAssay data set” (2004)
